Measurements published in patent US20040197268A1, “Method of imaging amyloid deposits using substituted rhodanine derivatives” (priority 1999, published 2004).
“And” between values parts separate entries of the source, which are not always exact repeats. Equal entries are not always repeated.

Tests used:
[1] = target: T1, beta amyloid peptide Aβ(1-40) (Homo sapiens, UniProt P05067); assay: BAPA (Beta-Amyloid Peptide Aggregation), pH 6.0; type: biochemical; conditions: Aβ(1-40) 33 μM, pH 6.0, 2 to 4 hours at room temperature, filtration
T1 construct: 0.5 mg/mL AP (140) peptide in 20% HFIP+0.1 μL/assay radioiodinated ^125I Aβ(1-40)
T1 sequence (P05067 672-711 limits assumed): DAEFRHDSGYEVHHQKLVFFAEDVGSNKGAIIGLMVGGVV
In short: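 HFIP-monomerised Aβ(1-40) with ^125I Aβ(1-40) tracer in 50 mM phosphate pH 6.0, DMSO <1%, incubated 2 to 4 h at room temperature. Aggregates collected by 0.2 μm filtration and counted by scintillation, background-corrected.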

[2] = target: T2, Aβ(1-40) (Homo sapiens, UniProt P05067); assay: BASSR (Beta-Amyloid Self-Seeding Radioassay), inhibitors of self-seeded amyloid fibril growth; type: biochemical; conditions: 30 μM soluble Aβ(1-40) + 125I-labeled Aβ(1-40), pH 7.5, 37° C., 3 to 5 hours, filtration
T2 construct: Soluble Aβ(1-40) peptide (Bachem, Torrance, Calif.); purchased Bachem, Torrance, Calif
T2 sequence (P05067 672-711 limits assumed): as above
In short: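 Self-seeding growth of fibrils from 30 μM soluble human Aβ(1-40) plus ^125I-labeled Aβ(1-40) was run in 50 mM sodium phosphate pH 7.5, 100 mM NaCl, 1 M urea, with compound as serial 3-fold dilutions from 100 μM final, DMSO <1%. After 10 min on ice and 3 to 5 hours at 37° C., fibrils were filter-collected and radioactivity counted.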

[3] = target: T2, Aβ(1-40); assay: BASST (Beta-Amyloid Self-Seeding, ThioflavinT), inhibitors of self-seeded amyloid fibril growth; type: biochemical; conditions: 30 μM soluble Aβ(1-40), pH 7.5, 37° C., 3 to 5 hours, thioflavin T fluorescence
In short: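 Self-seeded soluble Aβ(1-40) at 30 μM was mixed on ice with compound (3-fold dilutions, top 100 μM final; DMSO <1%) in pH 7.5 phosphate buffer with 1 M urea. After 10 min on ice, mixtures were incubated 3 to 5 hours at 37° C. Fibril growth was read as thioflavin T fluorescence (ex 440/em 485).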

[4] = target: T3, Aβ(1-42) (Homo sapiens, UniProt P05067); assay: BATYM Assay (Aβ(1-42) aggregation, Thioflavin T fluorescence); type: biochemical; conditions: Aβ 1-42 final concentration 100 μM, PBS pH 7.4, 37° C., 1 day, ThT fluorescence
T3 construct: Required Aβ(1-42)(California Peptide) was dried from its hexafluoroisopropanol (HFIP) stock solution; purchased California Peptide
T3 sequence (P05067 672-713 limits assumed): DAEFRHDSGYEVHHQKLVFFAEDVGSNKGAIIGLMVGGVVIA
In short: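 HFIP-dried Aβ(1-42), redissolved in DMSO/PBS pH 7.4 and filtered, was incubated at 100 μM final with compound (2% DMSO) for 1 day at 37° C. Aggregation read by ThT (30 μM, glycine-NaOH pH 8.5) fluorescence, ex 440/em 485 nm; inhibition corrected for compound blank, IC50 by curve fit, two experiments in triplicate.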

| SMILES | IC50 [1] [µM] | IC50 [2] | IC50 [3] | melting point [°C] | IC50 [4] [µM] |
| --- | --- | --- | --- | --- | --- |
| CCCCN(CCCC)c1ccc(/C=C2\SC(=S)N(Cc3cc(=O)c(O)co3)C2=O)cc1 [Example 33, (Z) 5-(4-Dibutylamino-benzylidene)-3-(5-hydroxy-4-oxo-4H-pyran-2-ylmethyl)-2-thioxo-thiazolidin-4-one] | > 60 | > 100 µM | 2 µM | 226 to 227 | 3.03 |
| CCCC1CCN(c2ccc(/C=C3\SC(=S)N(Cc4cc(=O)c(O)co4)C3=O)cc2)CC1 [Example 34, (Z) 3-(5-Hydroxy-4-oxo-4H-pyran-2-ylmethyl)-5-[4-(4-propyl-piperidin-1-yl)-benzylidene]-2-thioxo-thiazolidin-4-one] | > 60 | > 100 µM | 2 µM | 253 | 2.38 |
| CCCC1CCN(c2ccc(/C=C3\SC(=S)N(CC(=O)NS(=O)(=O)c4ccccc4)C3=O)cc2)CC1 [Example 36, (Z) N-(2-{4-Oxo-5-[4-(4-propyl-piperidin-1-yl)-benzylidene]-2-thioxo-thiazolidin-3-yl}-acetyl)benzenesulfonamide] | > 60 | > 100 µM | 1 µM | 201 | 3.3 |
| CCCC1CCN(c2ccc(/C=C3\SC(=S)N(CC(=O)NS(C)(=O)=O)C3=O)cc2)CC1 [Example 37, (Z) N-(2-{4-Oxo-5-[4-(4-propyl-piperidin-1-yl)-benzylidene]-2-thioxo-thiazolidin-3-yl}-acetyl)methanesulfonamide] | > 60 | 50 µM | 0.4 µM | 254 | 3.83 |
| O=C(CN1C(=O)/C(=C/c2ccc(N3CC[C@@H]4CCCC[C@H]4C3)cc2)SC1=S)NS(=O)(=O)c1ccc(F)cc1 [Example 38, (Z) 4-Fluoro-N-(2-{5-[(4aS,8aR)-4-(octahydro-isoquinolin-2-yl)-benzylidene]-4-oxo-2-thioxo-thiazolidin-3-yl}-acetyl)-benzenesulfonamide] | 66 | 10 µM and 5 µM | 0.7 µM and 0.1 µM | 220 to 221 | 2.54 |
| CCCC1CCN(c2ccc(/C=C3\SC(=S)N(CC(=O)NS(=O)(=O)c4ccc(F)cc4)C3=O)cc2)CC1 [Example 39, (Z) 4-Fluoro-N-(2-{4-oxo-5-[4-(4-propyl-piperidin-1-yl)-benzylidene]-2-thioxo-thiazolidin-3-yl}-acetyl)-benzenesulfonamide] | 37 | > 100 µM and 21 µM | 1 µM and 0.1 µM | 197 | 2.86 |
